Values of other authors as cited in patent publication US20230070788A1, “METHOD FOR DYEING KERATIN MATERIAL, COMPRISING THE USE OF AN ORGANIC C1-C6 ALKOXY SILANE AND A COPOLYMER OF (METH) ACRYLIC ACID AND MALEIC ACID (ANHYDRIDE)” (Henkel AG & Co. KGaA, priority 2019, published 2023).

Details: for solubility in water: 25° C.

Compound	solubility in water	solubility in water (in words) (water at 25° C.)
O=S(=O)([O-])c1ccc(N=Nc2c(O)ccc3ccccc23)cc1.[Na+] [Acid Orange 7, sodium salt of 4-[(2-hydroxy-1-naphthyl)azo]benzenesulfonate]	more than 7 g/L	
Nc1cc(S(=O)(=O)[O-])cc2cc(S(=O)(=O)[O-])c(N=Nc3ccccc3)c(O)c12.[Na+].[Na+] [Acid Red 33, disodium salt of 5-amino-4-hydroxy-3-(phenylazo)-naphthalene-2,7-disulphonate]	2.5 mg/mL	
O=C([O-])c1c(Cl)c(Cl)c(Cl)c(Cl)c1-c1c2c(Br)cc(=O)c(Br)c-2oc2c(Br)c(O)cc(Br)c12.O=C([O-])c1c(Cl)c(Cl)c(Cl)c(Cl)c1-c1c2c(Br)cc(=O)c(Br)c-2oc2c(Br)c(O)cc(Br)c12.[Na+].[Na+] [Acid Red 92, disodium salt of 3,4,5,6-tetrachloro-2-(1,4,5,8-tetrabromo-6-hydroxy-3-oxoxanthen-9-yl)benzoic acid]	greater than 10 g/L	
O=C([O-])C1=NN(c2ccc(S(=O)(=O)[O-])cc2)C(=O)C1N=Nc1ccc(S(=O)(=O)[O-])cc1.[Na+].[Na+].[Na+] (centres unmarked) [Acid Yellow 23, trisodium salt of 4,5-dihydro-5-oxo-1-(4-sulfophenyl)-4-((4-sulfophenyl)azo)-1H-pyrazole-3-carboxylic acid]		readily soluble
mixture of the sodium salts of mono- and disulfonic acids of 2-(2-quinolyl)-1H-indene-1,3(2H)-dione [Acid Yellow 3]	20 mg/mL	
